Results reported in US9221773B2, “Benzamide derivatives” (The Translational Genomics Research Institute, priority 2009, dated 2015).

What was measured:
Format in all cases: cell-based
SKOV3 cell line = assay: CellTiter-Blue cell viability assay, single agent, SKOV3; settings: Homo sapiens, SK-OV-3, SKOV3 ovarian cancer cells, 72 hours treatment
Text: (§1) Cell viability in the presence of varying concentrations of the above listed compounds at different time points was used to assess cytotoxicity and the effect of the compounds on cell proliferation. The SKOV3 cell line was originally isolated in 1973 from the ascitic fluid of a patient with an ovarian cancer. SKOV3 is a hypodiploid human cell line. SKOV3 cells are resistant to tumor necrosis factor and to several cytotoxic drugs including diphtheria toxin, cis-platinum and adriamycin. The A2780 cell line is a human ovarian adenocarcinoma cell line originally derived from a biopsy from an untreated patient. The A2780/CP cell line is a line derived from the A2780 cell line selected for resistance to cis-platinum.
(§2) Cell viability was measured by the CellTiter-Blue® cell viability assay Promega (Madison, Wis.). This procedure measures the conversion of the indicator dye (resazurin) to resorufin, an indicator of cell viability. Following treatment, growth media was removed and cells were incubated with 20 μl of CellTiter-Blue® Reagent and growth media for 1-4 hours at 37° C. Fluorescence values were measured at 535/590 nm using a Beckman-Coulter DTX-880 microplate reader.
(§3) Cells were grown to 70% confluency, trypsinized, counted, and seeded in 96 well flat-bottom plates at a final concentration of 2.5×10^3-5×10^3 cells/well (Day 0). Cells were allowed to incubate in growth media for 24 hours to allow for maximum adhesion. Treatment with the test agents or standard agents began on Day 1 and continued for 72 hours. At the 72 hour timepoint, treatment containing media was removed. Viable cell numbers are quantified by the CellTiter-Blue® cell viability assay as described above. Experiments were repeated at least twice with the same concentrations to determine growth inhibitory activity. Results from these studies were used to calculate an IC50 value (concentration of drug that inhibits cell growth by 50 percent of control) for each compound.
(§4) For single agent and combination studies, data from each experiment was collected and expressed as % Cell Expansion using the following calculation: % Cell Expansion=(ftest/fvehicle)×100
(§5) Where ftest is the fluorescence of the tested sample, and fvehicle is the fluorescence of the vehicle in which the drug is dissolved. Dose response graphs and IC50 values were generated using Prism 4 software (GraphPad) using the following equation: […]

A2780 cell line = assay: CellTiter-Blue cell viability assay, single agent, A2780; settings: Homo sapiens, A2780 ovarian adenocarcinoma cells, 72 hours treatment
Text: as §1, §2, §3, §4, §5

A2780/CP cell line = assay: CellTiter-Blue cell viability assay, single agent, A2780/CP; settings: Homo sapiens, A2780C/P, A2780/CP cis-platinum resistant cells, 72 hours treatment
Text: as §1, §2, §3, §4, §5

| Compound | IC50 (SKOV3 cell line) | IC50 (A2780 cell line) | IC50 (A2780/CP cell line) |
| --- | --- | --- | --- |
| CCC(C(=O)Nc1ncc(C(=O)NO)s1)c1ccccc1 (stereo not shown) [Compound 2, N-hydroxy-2-(2-phenylbutanamido)thiazole-5-carboxamide] | 46 nM | 0.5 nM | 4 nM |
| COC(C(=O)Nc1ncc(C(=O)NO)s1)c1ccccc1 (stereo not shown) [Compound 7, N-hydroxy-2-(2-methoxy-2-phenylacetamido)thiazole-5-carboxamide] | 70 nM | 40 nM | 20 nM |
| CC(C)C(C(=O)Nc1ncc(C(=O)NO)s1)c1ccc(Cl)cc1 (stereo not shown) [Compound 10, 2-(2-(4-chlorophenyl)-3-methylbutanamido)-N-hydroxythiazole-5-carboxamide] | 4 nM | 1.7 nM | 6.2 nM |
| CC(C)(Cc1ccccc1)C(=O)Nc1ncc(C(=O)NO)s1 [Compound 11, 2-(2,2-dimethyl-3-phenylpropanamido)-N-hydroxythiazole-5-carboxamide] | 7500 nM | 3800 nM | 3800 nM |
| CC(C)C(C(=O)Nc1ccc(C(=O)NO)cc1)c1ccc(Cl)cc1 (stereo not shown) [Compound 12, 4-(2-(4-chlorophenyl)-3-methylbutanamido)-N-hydroxybenzamide] | 40 nM | 30 nM | 3 nM |
| CCC(C(=O)Nc1ncc(C(=O)NO)s1)c1ccc(Br)cc1 (stereo not shown) [Compound 13, 2-(2-(4-bromophenyl)butanamido)-N-hydroxythiazole-5-carboxamide] | 2.5 nM | 0.5 nM | 0.08 nM |
| CCC(C(=O)Nc1ncc(C(=O)NO)s1)c1ccc(-c2ccccc2)cc1 (stereo not shown) [Compound 17, 2-(2-(biphenyl-4-yl)butanamido)-N-hydroxythiazole-5-carboxamide] | 0.2 nM | < 0.1 nM | 0.9 nM |
| CCC(C(=O)Nc1ncc(C(=O)NO)s1)c1cccc(F)c1 (stereo not shown) [Compound 20, 2-(2-(3-fluorophenyl)butanamido)-N-hydroxythiazole-5-carboxamide] | 4.3 nM | 2.4 nM | 100 nM |
| CCC(C(=O)Nc1ncc(C(=O)NO)s1)c1cccc(OC)c1 (stereo not shown) [Compound 22, N-hydroxy-2-(2-(3-methoxyphenyl)butanamido)thiazole-5-carboxamide] | 30 nM | 600 nM | 300 nM |
| CCC(C(=O)Nc1ncc(C(=O)NO)s1)c1ccccc1OC (stereo not shown) [Compound 23, N-hydroxy-2-(2-(2-methoxyphenyl)butanamido)thiazole-5-carboxamide] | 2300 nM | 100 nM | 500 nM |
| COCCC(C(=O)Nc1ncc(C(=O)NO)s1)c1ccc(-c2ccccc2)cc1 (stereo not shown) [Compound 24, 2-(2-(biphenyl-4-yl)-4-methoxybutanamido)-N-hydroxythiazole-5-carboxamide] | 30 nM | 20 nM | 17 nM |
| CCC(C(=O)Nc1ccc(C(=O)NO)cc1)c1ccc(-c2ccccc2)cc1 (stereo not shown) [Compound 26, 4-(2-(biphenyl-4-yl)butanamido)-N-hydroxybenzamide] | 1.1 nM | 0.3 nM | 1.7 nM |
| COCCC(C(=O)Nc1ccc(C(=O)NO)cc1)c1ccccc1 (stereo not shown) [Compound 27, N-hydroxy-4-(4-methoxy-2-phenylbutanamido)benzamide] | 900 nM | 16 nM | 70 nM |

The remaining lines, values ahead:

| IC50 (SKOV3 cell line) | IC50 (A2780 cell line) | IC50 (A2780/CP cell line) | Compound |
| --- | --- | --- | --- |
| 40 nM |  |  | CC(C)C(C(=O)Nc1ncc(C(=O)NO)s1)c1ccccc1 (stereo not shown) [Compound 1, N-hydroxy-2-(3-methyl-2-phenylbutanamido)thiazole-5-carboxamide] |
| 4100 nM | 1200 nM | 7500 nM | O=C(NO)c1cnc(NC(=O)C2(c3ccccc3)CC2)s1 [Compound 3, N-hydroxy-2-(1-phenylcyclopropanecarboxamido)thiazole-5-carboxamide] |
| 1300 nM | 900 nM | 7500 nM | CC(C)(C(=O)Nc1ncc(C(=O)NO)s1)c1ccccc1 [Compound 4, N-hydroxy-2-(2-methyl-2-phenylpropanamido)thiazole-5-carboxamide] |
| 2100 nM | 300 nM | 1600 nM | O=C(Cc1ccccc1)Nc1ncc(C(=O)NO)s1 [Compound 5, N-hydroxy-2-(2-phenylacetamido)thiazole-5-carboxamide] |
| 500 nM | 300 nM | 3200 nM | O=C(CCc1ccccc1)Nc1ncc(C(=O)NO)s1 [Compound 6, N-hydroxy-2-(3-phenylpropanamido)thiazole-5-carboxamide] |
| < 0.1 nM | < 0.1 nM | < 0.1 nM | CCC(C(=O)Nc1ncc(C(=O)NO)s1)c1ccc(OC)cc1 (stereo not shown) [Compound 8, N-hydroxy-2-(2-(4-methoxyphenyl)butanamido)thiazole-5-carboxamide] |
| 30 nM | 30 nM | 4.8 nM | CC(C(=O)Nc1ncc(C(=O)NO)s1)c1ccccc1 (stereo not shown) [Compound 9, N-hydroxy-2-(2-phenylpropanamido)thiazole-5-carboxamide] |
| 80 nM | 2.4 nM | 8.7 nM | COCCC(C(=O)Nc1ncc(C(=O)NO)s1)c1ccccc1 (stereo not shown) [Compound 14, N-hydroxy-2-(4-methoxy-2-phenylbutanamido)thiazole-5-carboxamide] |
| 20 nM | 0.04 nM | 0.3 nM | CCC(C(=O)Nc1ccc(C(=O)NO)cc1)c1ccc(OC)cc1 (stereo not shown) [Compound 15, N-hydroxy-4-(2-(4-methoxyphenyl)butanamido)benzamide] |
| 100 nM | 440 nM | 140 nM | CCC(C(=O)Nc1ncc(C(=O)NO)s1)c1ccc(-c2cncnc2)cc1 (stereo not shown) [Compound 18, N-hydroxy-2-(2-(4-(pyrimidin-5-yl)phenyl)butanamido)thiazole-5-carboxamide] |
| 8.9 nM | < 0.1 nM | 3 nM | CCC(C(=O)Nc1ncc(C(=O)NO)s1)c1ccc(F)cc1 (stereo not shown) [Compound 19, 2-(2-(4-fluorophenyl)butanamido)-N-hydroxythiazole-5-carboxamide] |
| 20 nM | 60 nM | 40 nM | CC(C)C(C(=O)Nc1ncc(C(=O)NO)s1)c1ccc(O)cc1 (stereo not shown) [Compound 21, N-hydroxy-2-(2-(4-hydroxyphenyl)-3-methylbutanamido)thiazole-5-carboxamide] |
| 100 nM | 1.1 nM | 20 nM | CCC(C(=O)Nc1ccc(C(=O)NO)cc1)c1ccc(Br)cc1 (stereo not shown) [Compound 25, 4-(2-(4-bromophenyl)butanamido)-N-hydroxybenzamide] |
